One molecule from ChEMBL document CHEMBL4673209, “Discovery of a novel potent GPR40 full agonist” (Bioorg Med Chem Lett, 2018) can be followed below.

The source made the active and inactive calls. The calls are words filed in the database; no cut-off is given here. Where only a bound is given, the exact number is not on record here.

Data set [1] addresses Free fatty acid receptor 1 (Homo sapiens, UniProt O14842). The data set can be described thus: Agonist activity at human GPR40 transfected in HEK293 cells assessed as increase in intracellular calcium level incubated for 1 hr by Fluo-8 dye based fluorescence analysis. In kind it is functional, cell-based. The conditions noted are these: hek293.
Data set [2] concerns Rattus norvegicus. The experiment in a line: Anti-glycemic activity in fasted Sprague-Dawley ZDF rat assessed as reduction in post-prandial hyperglycemia by measuring AUC(0 to 2 hrs) for blood glucose at 10 mg/kg administered for 1 day and measured on day 1 by OGTT. In kind it is functional.
Another data set is filed under the species Mus musculus. The experiment in a line: Anti-glycemic activity in C57 mouse assessed as reduction in blood glucose excursion measured for 120 mins by IPGTT. In kind it is functional, organism-based.
The target of the next data set is T1, Cytochrome P450 1A2 (Homo sapiens, UniProt P05177).
T1 sequence (P05177 whole entry): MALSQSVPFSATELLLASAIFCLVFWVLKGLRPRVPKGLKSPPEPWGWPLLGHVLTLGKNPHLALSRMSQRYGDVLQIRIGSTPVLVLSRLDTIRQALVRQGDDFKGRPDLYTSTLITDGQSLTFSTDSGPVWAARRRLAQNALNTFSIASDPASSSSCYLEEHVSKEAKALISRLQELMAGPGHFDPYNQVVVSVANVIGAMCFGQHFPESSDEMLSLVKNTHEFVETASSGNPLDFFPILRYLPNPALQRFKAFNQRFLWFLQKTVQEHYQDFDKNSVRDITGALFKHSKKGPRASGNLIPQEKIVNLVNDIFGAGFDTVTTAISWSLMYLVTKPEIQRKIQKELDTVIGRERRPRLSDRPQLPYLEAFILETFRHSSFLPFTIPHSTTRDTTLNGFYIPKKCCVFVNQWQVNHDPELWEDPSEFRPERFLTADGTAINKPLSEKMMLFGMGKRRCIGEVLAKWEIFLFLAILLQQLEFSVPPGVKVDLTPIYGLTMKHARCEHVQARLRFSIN
The data set can be described thus: Inhibition of CYP1A2 (unknown origin). In kind it is ADME.

Data set [3] addresses T2, Free fatty acid receptor 2 (Homo sapiens) (UniProt O15552).
T2 sequence (whole entry): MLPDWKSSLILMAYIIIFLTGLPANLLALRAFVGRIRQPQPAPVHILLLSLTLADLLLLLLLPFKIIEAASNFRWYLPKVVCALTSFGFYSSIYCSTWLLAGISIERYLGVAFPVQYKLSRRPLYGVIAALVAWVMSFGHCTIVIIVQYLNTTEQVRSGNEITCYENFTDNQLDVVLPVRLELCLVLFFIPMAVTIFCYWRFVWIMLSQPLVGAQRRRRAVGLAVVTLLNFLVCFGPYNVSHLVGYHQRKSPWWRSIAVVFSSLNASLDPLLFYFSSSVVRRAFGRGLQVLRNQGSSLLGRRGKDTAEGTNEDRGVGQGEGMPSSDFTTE
The experiment in a line: Agonist activity at GPR43 (unknown origin).

The target in another data set is T3, Cytochrome P450 2C8 (Homo sapiens, UniProt P10632).
T3 sequence (P10632 whole entry): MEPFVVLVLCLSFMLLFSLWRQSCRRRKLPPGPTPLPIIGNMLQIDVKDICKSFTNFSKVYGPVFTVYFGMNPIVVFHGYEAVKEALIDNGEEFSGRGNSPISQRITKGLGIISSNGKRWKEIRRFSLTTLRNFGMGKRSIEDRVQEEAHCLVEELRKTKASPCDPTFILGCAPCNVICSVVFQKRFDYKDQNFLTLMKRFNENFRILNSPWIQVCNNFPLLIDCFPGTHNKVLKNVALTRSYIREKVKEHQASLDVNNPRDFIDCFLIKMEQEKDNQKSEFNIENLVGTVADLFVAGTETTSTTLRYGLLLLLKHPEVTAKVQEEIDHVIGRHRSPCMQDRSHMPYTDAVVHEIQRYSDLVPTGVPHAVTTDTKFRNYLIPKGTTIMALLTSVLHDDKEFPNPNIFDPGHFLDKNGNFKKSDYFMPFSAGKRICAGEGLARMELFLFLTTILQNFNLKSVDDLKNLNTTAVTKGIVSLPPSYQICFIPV
The experiment in a line: Inhibition of recombinant CYP2C8 (unknown origin). In kind it is ADME.

A short description of data set [4]: Intrinsic clearance in human assessed as half-life at 1 uM. In kind it is ADME.
In another data set the target is Cytochrome P450 3A4 (Homo sapiens, UniProt P08684). The experiment in a line: Inhibition of CYP3A4 (unknown origin) using testosterone as substrate. In kind it is ADME.
Sequence of Cytochrome P450 3A4 (P08684 whole entry): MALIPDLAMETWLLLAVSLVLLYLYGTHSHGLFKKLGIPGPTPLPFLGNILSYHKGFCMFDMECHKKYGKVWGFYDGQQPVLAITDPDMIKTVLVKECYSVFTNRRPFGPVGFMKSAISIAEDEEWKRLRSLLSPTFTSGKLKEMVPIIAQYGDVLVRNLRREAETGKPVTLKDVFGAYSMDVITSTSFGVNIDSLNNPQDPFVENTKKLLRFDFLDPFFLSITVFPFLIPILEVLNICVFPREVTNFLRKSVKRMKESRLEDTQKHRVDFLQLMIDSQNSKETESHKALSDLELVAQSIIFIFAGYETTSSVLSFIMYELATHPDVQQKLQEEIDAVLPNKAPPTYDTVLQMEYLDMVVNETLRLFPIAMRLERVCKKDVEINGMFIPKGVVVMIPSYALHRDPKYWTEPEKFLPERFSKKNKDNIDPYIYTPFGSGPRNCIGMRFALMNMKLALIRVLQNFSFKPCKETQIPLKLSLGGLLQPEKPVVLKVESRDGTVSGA
A short description of data set [5]: Oral bioavailability in dog. In kind it is ADME, organism-based, Canis lupus familiaris. The conditions noted are these: in vivo.
For data set [6], the system named is Rattus norvegicus. The data set can be described thus: Anti-glycemic activity in fasted Sprague-Dawley ZDF rat assessed as reduction in post-prandial hyperglycemia by measuring AUC(0 to 2 hrs) for blood glucose at 3 mg/kg administered daily for 8 days and measured on day 8 by OGTT. In kind it is functional. The conditions noted are these: time 8 day.

Sequence of Free fatty acid receptor 1 (O14842 whole entry): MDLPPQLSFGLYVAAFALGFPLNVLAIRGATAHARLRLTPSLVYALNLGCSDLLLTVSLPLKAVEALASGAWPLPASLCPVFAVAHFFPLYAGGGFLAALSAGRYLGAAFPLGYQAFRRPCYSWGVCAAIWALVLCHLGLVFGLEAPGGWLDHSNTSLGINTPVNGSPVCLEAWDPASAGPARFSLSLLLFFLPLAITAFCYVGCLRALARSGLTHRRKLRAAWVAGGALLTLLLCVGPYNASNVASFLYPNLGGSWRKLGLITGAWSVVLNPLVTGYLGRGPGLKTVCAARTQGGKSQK

As usually defined, the EC50 is the midpoint of the concentration-response curve. What is called IC50 is the concentration needed to halve the response being measured. In general, half-life refers to how long it takes for the measured level to halve. By bioavailability is commonly meant dose-corrected exposure relative to a reference, in per cent. Read a low bioavailability as little systemic uptake. Regarding `COc1cc(-c2ncc(COc3cccc([C@@H](CC(=O)O)C4CC4)c3)nc2CC(C)C)c(F)cn1`, the EC50 in data set [1] came to 0.002 µM. Further, the Activity is on record as 37373 ng/mL.hr in the data set on Rattus norvegicus [2] and 16769 ng/mL.hr in the data set with Rattus norvegicus [6]. In addition, the result in the data set listed under Mus musculus was Active. The 50% inhibitory concentration (IC50) was over 10 µM on Cytochrome P450 1A2, 9.8 µM on Cytochrome P450 2C8 and over 10 µM on Cytochrome P450 3A4. Also, in [3], the outcome was inactive. Moreover, in [4], the half-life at 1 µM was determined as 1.72 h. Further, the bioavailability in data set [5] came to 33.6%.
